Experimental data reported in ChEMBL document CHEMBL5226302, “Small-Molecule Inhibitors Targeting the Canonical WNT Signaling Pathway for the Treatment of Cancer” (J Med Chem, 2021).
Values after ≈ are worked out from the molar mass of the structure shown. One block for each compound: values may come before it.

Assays:
[1] = Inhibition of Wnt pathway (unknown origin); design: species or system Homo sapiens
[2] = Plasma concentration in mouse at 5 mg/kg, po measured after 24 hr; format: ADME, organism-based
[3] = biological target: Catenin beta-1/Transcription factor 7 (Homo sapiens, UniProt P35222+P36402); experiment: Inhibition of beta catenin/TCF (unknown origin) by immunoprecipitation method; format: protein assay
[4] = Inhibition of TBC (unknown origin); design: species or system Homo sapiens
[5] = Half life of compound in PBS buffer; format: physicochemical
[6] = tested on: HeLa; experiment: Antiproliferative activity against human HeLa cell line assessed as cell growth inhibition; format: functional, cell-based
[7] = biological target: T1, Poly [ADP-ribose] polymerase tankyrase-1 (Homo sapiens, UniProt O95271); experiment: Inhibition of TNKS1 (unknown origin)
T1 sequence (O95271 whole entry): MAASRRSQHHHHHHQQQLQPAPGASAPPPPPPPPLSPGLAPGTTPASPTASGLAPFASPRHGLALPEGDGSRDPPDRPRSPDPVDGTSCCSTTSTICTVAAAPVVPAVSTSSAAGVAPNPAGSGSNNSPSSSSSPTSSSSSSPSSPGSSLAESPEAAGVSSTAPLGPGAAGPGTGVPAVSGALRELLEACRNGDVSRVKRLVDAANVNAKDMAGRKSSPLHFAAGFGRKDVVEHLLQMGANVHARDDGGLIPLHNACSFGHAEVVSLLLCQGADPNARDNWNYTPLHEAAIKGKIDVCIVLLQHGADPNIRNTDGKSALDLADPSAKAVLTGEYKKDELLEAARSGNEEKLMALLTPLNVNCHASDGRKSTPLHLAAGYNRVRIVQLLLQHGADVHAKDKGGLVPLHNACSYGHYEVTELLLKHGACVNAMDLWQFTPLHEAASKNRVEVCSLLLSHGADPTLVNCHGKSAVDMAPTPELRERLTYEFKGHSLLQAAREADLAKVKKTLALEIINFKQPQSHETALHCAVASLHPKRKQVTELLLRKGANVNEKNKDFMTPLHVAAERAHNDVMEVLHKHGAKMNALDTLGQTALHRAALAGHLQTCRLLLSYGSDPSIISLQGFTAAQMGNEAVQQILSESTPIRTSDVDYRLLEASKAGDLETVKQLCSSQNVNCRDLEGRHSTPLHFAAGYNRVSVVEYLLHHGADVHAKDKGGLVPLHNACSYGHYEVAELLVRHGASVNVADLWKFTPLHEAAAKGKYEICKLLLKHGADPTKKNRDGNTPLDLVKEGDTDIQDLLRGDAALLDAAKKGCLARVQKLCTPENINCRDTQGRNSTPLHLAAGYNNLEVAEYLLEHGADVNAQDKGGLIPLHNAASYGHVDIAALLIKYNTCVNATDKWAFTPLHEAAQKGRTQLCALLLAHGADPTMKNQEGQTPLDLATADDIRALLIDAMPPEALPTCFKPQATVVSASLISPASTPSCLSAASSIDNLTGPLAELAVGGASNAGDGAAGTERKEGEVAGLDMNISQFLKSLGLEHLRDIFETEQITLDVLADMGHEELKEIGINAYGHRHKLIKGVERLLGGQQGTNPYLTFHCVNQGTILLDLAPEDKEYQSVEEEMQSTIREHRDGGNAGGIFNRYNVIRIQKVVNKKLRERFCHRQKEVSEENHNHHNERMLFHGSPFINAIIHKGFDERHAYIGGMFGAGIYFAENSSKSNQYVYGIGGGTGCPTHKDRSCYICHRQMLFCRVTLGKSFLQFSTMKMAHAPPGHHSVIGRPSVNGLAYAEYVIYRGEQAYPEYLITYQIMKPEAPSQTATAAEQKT

[8] = cells; details: Homo sapiens, COLO 320DM
[9] = biological target: T1, Poly [ADP-ribose] polymerase tankyrase-1; experiment: Inhibition of human TNKS1 (1030 to 1317 residues) measured after 20 hrs
[10] = biological target: T2, Poly [ADP-ribose] polymerase tankyrase-2 (Homo sapiens, UniProt Q9H2K2); experiment: Inhibition of human TNKS2 (873 to 1162 residues) measured after 15 hrs in presence of NAD+ by fluorescence assay
T2 sequence (Q9H2K2 whole entry): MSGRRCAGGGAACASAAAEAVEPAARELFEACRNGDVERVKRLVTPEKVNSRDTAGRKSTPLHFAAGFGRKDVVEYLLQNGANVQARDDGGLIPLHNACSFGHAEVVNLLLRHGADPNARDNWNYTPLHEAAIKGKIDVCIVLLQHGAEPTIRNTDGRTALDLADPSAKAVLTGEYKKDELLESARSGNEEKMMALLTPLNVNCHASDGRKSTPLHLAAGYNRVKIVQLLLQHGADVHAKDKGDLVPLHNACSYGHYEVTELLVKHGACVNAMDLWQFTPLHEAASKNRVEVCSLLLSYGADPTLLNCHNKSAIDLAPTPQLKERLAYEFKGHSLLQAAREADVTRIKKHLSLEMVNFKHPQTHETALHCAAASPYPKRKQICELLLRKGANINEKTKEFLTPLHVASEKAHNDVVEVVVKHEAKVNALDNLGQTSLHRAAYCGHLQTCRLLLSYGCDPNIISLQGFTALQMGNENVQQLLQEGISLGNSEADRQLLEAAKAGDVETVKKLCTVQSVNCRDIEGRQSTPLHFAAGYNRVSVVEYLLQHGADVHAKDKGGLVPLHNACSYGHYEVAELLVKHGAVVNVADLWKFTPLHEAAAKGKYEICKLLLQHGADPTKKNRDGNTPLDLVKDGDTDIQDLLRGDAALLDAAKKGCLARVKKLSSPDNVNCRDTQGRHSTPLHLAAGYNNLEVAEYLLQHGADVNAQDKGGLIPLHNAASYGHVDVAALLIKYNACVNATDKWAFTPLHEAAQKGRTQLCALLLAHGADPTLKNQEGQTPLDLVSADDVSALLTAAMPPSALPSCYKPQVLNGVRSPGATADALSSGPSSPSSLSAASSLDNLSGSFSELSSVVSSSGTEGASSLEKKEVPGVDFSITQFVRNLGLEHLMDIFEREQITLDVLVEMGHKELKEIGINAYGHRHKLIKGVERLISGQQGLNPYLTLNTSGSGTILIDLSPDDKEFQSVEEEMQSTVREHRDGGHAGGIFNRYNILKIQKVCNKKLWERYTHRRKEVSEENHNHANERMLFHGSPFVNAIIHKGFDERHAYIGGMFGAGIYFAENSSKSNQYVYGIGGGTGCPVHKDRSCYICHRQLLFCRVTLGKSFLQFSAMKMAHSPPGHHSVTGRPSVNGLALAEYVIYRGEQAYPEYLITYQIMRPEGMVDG

[11] = Chemical stability of the compound at pH 7.4 measured after 24 hrs; format: physicochemical; details: buffer, read-out: Stability
[12] = biological target: T2, Poly [ADP-ribose] polymerase tankyrase-2; experiment: Inhibition of TNKS2 (unknown origin)
[13] = biological target: Poly [ADP-ribose] polymerase 1 (Homo sapiens, UniProt P09874); experiment: Inhibition of human recombinant PARP1 incubated for 30 mins in the presence of NAD
[14] = biological target: Poly [ADP-ribose] polymerase 2 (Homo sapiens, UniProt Q9UGN5); experiment: Inhibition of PARP2 (unknown origin) using NAD as substrate incubated for 1 min
[15] = Solubility of the compound at pH 7.4; format: physicochemical; details: buffer
[16] = Oral bioavailability in mouse at 2.5 mg/kg; format: ADME, organism-based; details: in vivo

Chain of Poly [ADP-ribose] polymerase 1 (P09874 whole entry): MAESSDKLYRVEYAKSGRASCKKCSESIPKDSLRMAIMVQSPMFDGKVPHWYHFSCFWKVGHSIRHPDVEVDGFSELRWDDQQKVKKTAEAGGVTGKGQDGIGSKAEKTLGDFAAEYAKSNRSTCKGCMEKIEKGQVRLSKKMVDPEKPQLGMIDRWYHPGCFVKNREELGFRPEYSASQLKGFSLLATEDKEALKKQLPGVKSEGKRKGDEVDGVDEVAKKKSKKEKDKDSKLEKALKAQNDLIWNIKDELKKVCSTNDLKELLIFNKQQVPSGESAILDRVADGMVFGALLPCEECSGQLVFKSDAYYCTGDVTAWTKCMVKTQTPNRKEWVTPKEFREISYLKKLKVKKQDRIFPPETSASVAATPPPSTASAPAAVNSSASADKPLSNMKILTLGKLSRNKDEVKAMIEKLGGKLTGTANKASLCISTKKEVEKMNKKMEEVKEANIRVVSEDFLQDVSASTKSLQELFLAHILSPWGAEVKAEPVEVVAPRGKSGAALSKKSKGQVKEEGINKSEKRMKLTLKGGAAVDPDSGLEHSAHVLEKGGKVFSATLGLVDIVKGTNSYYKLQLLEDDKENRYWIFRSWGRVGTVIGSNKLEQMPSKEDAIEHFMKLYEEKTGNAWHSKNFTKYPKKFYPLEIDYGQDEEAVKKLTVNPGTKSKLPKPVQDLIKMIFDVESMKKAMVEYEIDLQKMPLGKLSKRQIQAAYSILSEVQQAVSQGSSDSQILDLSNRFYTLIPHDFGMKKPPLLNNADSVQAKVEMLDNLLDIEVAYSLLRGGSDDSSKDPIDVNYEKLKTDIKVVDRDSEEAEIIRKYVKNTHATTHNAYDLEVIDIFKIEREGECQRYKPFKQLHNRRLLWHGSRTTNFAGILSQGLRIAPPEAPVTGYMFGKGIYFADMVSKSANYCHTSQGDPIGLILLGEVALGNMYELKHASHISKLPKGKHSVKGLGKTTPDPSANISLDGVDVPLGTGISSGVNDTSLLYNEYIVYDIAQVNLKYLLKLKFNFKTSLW
Chain of Catenin beta-1/Transcription factor 7 (P36402 whole entry): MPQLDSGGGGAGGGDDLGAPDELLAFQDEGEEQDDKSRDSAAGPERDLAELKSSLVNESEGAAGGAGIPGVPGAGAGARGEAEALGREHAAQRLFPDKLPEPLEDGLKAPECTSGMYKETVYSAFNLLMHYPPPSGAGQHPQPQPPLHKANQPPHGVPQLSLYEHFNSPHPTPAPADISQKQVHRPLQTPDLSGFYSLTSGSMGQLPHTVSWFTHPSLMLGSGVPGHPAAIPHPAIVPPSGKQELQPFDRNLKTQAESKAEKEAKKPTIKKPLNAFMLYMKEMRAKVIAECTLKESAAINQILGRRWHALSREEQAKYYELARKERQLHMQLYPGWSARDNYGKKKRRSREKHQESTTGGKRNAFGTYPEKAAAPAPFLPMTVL
Chain of Catenin beta-1/Transcription factor 7 (P35222 whole entry): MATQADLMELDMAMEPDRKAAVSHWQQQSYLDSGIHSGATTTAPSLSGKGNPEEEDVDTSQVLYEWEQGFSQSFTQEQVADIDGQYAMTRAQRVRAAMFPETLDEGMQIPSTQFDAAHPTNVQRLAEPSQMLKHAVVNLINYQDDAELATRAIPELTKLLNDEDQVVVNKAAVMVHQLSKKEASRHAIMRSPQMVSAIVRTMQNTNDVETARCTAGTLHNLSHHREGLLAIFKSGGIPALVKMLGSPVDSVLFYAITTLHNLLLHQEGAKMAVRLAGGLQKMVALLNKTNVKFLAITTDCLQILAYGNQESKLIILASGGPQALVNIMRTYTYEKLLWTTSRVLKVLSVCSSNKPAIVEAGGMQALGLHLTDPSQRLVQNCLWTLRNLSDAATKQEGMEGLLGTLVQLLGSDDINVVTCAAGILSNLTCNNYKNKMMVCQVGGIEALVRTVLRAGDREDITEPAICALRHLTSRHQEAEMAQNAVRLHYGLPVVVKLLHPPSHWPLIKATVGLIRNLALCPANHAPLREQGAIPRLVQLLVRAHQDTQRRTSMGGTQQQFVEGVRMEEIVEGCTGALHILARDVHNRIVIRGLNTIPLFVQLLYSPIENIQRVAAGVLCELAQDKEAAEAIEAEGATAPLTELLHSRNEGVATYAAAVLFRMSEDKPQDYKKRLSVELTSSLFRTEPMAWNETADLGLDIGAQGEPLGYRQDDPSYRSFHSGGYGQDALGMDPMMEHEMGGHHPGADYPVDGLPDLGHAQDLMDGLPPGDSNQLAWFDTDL
Chain of Poly [ADP-ribose] polymerase 2 (Q9UGN5 whole entry): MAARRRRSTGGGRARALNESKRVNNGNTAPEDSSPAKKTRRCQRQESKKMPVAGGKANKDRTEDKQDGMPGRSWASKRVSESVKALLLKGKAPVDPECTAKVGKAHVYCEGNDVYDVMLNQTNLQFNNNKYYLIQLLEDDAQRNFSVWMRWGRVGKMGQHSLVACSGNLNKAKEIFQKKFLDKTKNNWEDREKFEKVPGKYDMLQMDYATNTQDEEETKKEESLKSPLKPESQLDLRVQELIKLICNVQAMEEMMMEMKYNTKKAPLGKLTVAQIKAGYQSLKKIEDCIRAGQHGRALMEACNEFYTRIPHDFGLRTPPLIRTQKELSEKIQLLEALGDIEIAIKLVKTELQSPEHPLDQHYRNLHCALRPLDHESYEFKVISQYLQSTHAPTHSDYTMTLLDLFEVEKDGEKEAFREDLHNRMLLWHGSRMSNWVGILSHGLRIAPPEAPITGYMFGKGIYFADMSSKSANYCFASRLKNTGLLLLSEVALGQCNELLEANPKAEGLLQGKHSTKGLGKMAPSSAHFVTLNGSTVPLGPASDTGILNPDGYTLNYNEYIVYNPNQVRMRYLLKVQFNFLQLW

SMILES: Cc1ccc2nc(NC(=O)CSc3nc4c(c(=O)n3-c3ccccc3)SCC4)sc2c1
- IC50 [1]: 27 nM

SMILES: O=C1[C@H](Cc2ccc(O)cc2)N2C(=O)CCN(C(=O)NCc3ccccc3)[C@H]2CN1Cc1cccc2ccccc12
- IC50 [3]: 3000 nM

SMILES: O=C(CSc1nc2c(c(=O)n1-c1ccccc1)SCC2)Nc1ccc(-c2ccccc2)cn1
- EC50 [6]: 0.5 nM

SMILES: Cc1cc(-c2ccc(OC(C)C(=O)Nc3ccc(-c4cnccn4)cn3)cc2)ccn1 (stereo not given)
- IC50 [1]: 0.11 nM
- remaining at 24 h [11]: 71%

SMILES: COc1ccc(C2(CNC(=O)c3ccc(NC(=O)c4ccco4)cc3)CCOCC2)cc1
- IC50 [12]: 830 nM

SMILES: O=C(CN1CCCC2=C1C(=O)N(C1CC1)C2=O)Nc1ccc(-c2cccnc2)nn1
- solubility [15]: 60 µg/mL (≈ 148 µM)
- bioavailability [16]: 81%

SMILES: CN1C(=O)C2=C(C1=O)N(CC(=O)Nc1ccc(-c3nccs3)cc1)CCC2
- solubility [15]: 15 µg/mL (≈ 39.2 µM)

Now from value to compound:

- IC50 [1]: 0.074 nM
- concentration at 24 h [2]: 1 nM
SMILES: Cc1cc(-c2ccc(CC(=O)Nc3ccc(-c4cccnc4)cc3)cc2)ccn1

- IC50 [4]: 160 nM
- half-life [5]: 40 min
SMILES: COc1ccccc1NC(=O)c1ccc(NC(=O)CCc2nc3ccccc3c(=O)[nH]2)cc1

- IC50 [7]: 1900 nM
SMILES: O=C(CCC1CCCC1)Nc1nnc2n1CCS2

- IC50 [8]: 31000 nM
SMILES: Nc1nonc1NC(=O)Cn1c2ccccc2c2nc3nonc3nc21

- IC50 [8]: 15000 nM
SMILES: O=C(O)CCCn1c2ccccc2c2nc3nonc3nc21

- IC50 [9]: 423 nM
- IC50 [10]: 6.1 nM
SMILES: CN1CCCc2c1cc(-c1ccc(Br)cc1)[nH]c2=O

- IC50 [1]: 2.3 nM
SMILES: Cc1cc(-c2ccc(CC(=O)Nc3ccc4c(c3)[nH]c3ccccc34)cc2)ccn1

- IC50 [9]: 30 nM
- IC50 [10]: 5.1 nM
- IC50 [13]: > 10000 nM
- IC50 [14]: > 10000 nM
SMILES: COc1cccc2c(=O)[nH]c(-c3ccc(C)cc3)cc12

- solubility [15]: 73 µg/mL (≈ 183 µM)
- bioavailability [16]: 100%
SMILES: C[C@H](Nc1ccc(-c2ccnn2C)nc1)C(=O)Nc1ccc(-c2cccnc2)cn1
